The structures appear in SMILES notation.

The subject of one experiment is MB-468 tumors. Put plainly: MB-468 tumor-bearing mice. The experiment is classed as in vivo, mouse. The note with it: intratumoral or intravenous regimen, 45 days.
The target of the next experiment is proteasome (Homo sapiens, UniProt P28074). Put plainly: Proteasome activity in BPLER tumors after treatment (ProteasomeGlo assay). The experiment is classed as in vivo, mouse. The note with it: after 18 hours. As to the method: (§1) (6A) Proteasome activity in protein lysates from BPLER tumors 18 hours after intratumoral (i.t.), intraperithoneal (i.p) or intravenous (i.v.) treatment with bortezomib at the indicated dose, as determined by ProteasomeGlo assay. Proteasome activity in BPLER treated with bortezomib in vitro is shown as control. (6B-6E) Mean tumor volume (6B, 6D) in BPLER tumor-bearing mice after treatment with bortezomib or DMSO at the indicated dose, schedule and route of administration. Median tumor weight was measured at time of sacrifice (6C, 6E). […] (6F) Immunoblot analysis of protein lysates from BPLER tumors 18 hours after 1 intravenous dose of bortezomib at 1.6 mg/kg bortezomib or DMSO, showing efficient Noxa induction and caspase-3 and PARP1 cleavage after bortezomib treatment. (6G) Mean tumor volume in MB-468 tumor-bearing mice after intravenous treatment with 1.6 mg/kg bortezomib weekly. (6H) Schematic diagram illustrating generation of mouse TNBC primary tumor fragments for bortezomib-based therapy studies. […] 4T1-E tumors are shown as control. (6I, 6J) Mean V22 tumor volume (6I) after weekly intravenous infusion of bortezomib (1.6 mg/kg) or DMSO. Treatment was started 2 days after implantation of primary tumor fragments. […] The top and the bottom of each box represent the 75th and 25th percentile of tumor weight, respectively. Upper and lower whiskers represent maximum and minimum tumor weight, respectively. The black horizontal band in each box corresponds to median tumor weight.
Our data thus far indicate that highly malignant epithelial TNBC cells are selectively susceptible to proteasome inhibition. Bortezomib is already in the clinic for treatment of multiple myeloma and other lymphomas. […] To assess therapeutic efficacy, we administered bortezomib every 3 days (0.8 mg/kg i.t.) or weekly (1.6 mg/kg i.v.) after BPLER tumors, implanted in the flank of Nu/J mice, became palpable. BPLER tumor outgrowth was assessed by tumor volume during the treatment period and by tumor weight at the time of sacrifice. […]

A further experiment concerns Noxa, PARP1. Put plainly: Immunoblot of Noxa induction and PARP cleavage in breast cell lines. It counts as cell-based, human. The note with it: for Noxa protein induction: 12.5 nM, 24 hours. As to the method: Immunoblot was performed as described^41. Primary antibodies were as follows: cleaved Caspase 3 (Cell Signaling, rabbit polyclonal, 1:1000), PARP1 (Santa Cruz, rabbit polyclonal, 1:500), MCL1 (Cell Signaling, Rabbit polyclonal, 1:1000), Bim (Santa Cruz, rabbit polyclonal, 1:500), Bik (Cell Signaling, rabbit polyclonal, 1:1000), Puma (Cell Signaling, rabbit polyclonal, 1:1000), Noxa (Calbiochem, mouse monoclonal, 1:500), Bid (Santa Cruz, rabbit polyclonal, 1:500), Bad (Santa Cruz, rabbit polyclonal, 1:500). Antibodies were diluted in 5% milk in TBS-T and incubated O.N. at 4° C. Secondary mouse and rabbit HRP-conjugated antibodies were from Amersham. Protein signal was detected using the ECL Plus kit (Amersham). For flow cytometry, cells were stained as previously described^33, using the following fluorescent-conjugated antibodies: CD44 (BD Biosciences), CD24 (BD Biosciences), CD326 (ESA, Biolegend), Annexin V (Invitrogen). For immunofluorescence microscopy, cells were fixed in 2% PFA for 10 min, permeabilized with 1% Triton X in PBS for 5 min, and incubated with primary antibodies in 0.5% Triton X, 1% FBS in PBS for 30 min at RT. Antibodies were: CK18 (Santa Cruz, mouse monoclonal, 1:100) and CK14 (Millipore, mouse monoclonal, 1:100). After washing the cells were stained sequentially with AlexaFluor647-conjugated secondary antibody (Invitrogen, 1:200) and DAPI (Sigma, 1:5000). For immunohistochemistry, BPLER tumor sections were prepared from paraffin-embedded tissues, deparaffinized and treated with 10% citrate buffer for 15 min.
In general terms: A western blot detects proteins with antibodies after separation by electrophoresis.

For experiment [1], the system named is unselected breast cancer patients. The settings on record: eight phase I/II studies, chemotherapy combination regimens with bortezomib; cited from earlier work.
In experiment [2] the test system is mesenchymal MDA-MB-231 and MDA-MB-436 cells. Put plainly: cells. The note with it: Homo sapiens, 24 h, read-out: decrease of cell viability.
Experiment [3] concerns luminal MCF7 and BT-474 cells. Nature of the experiment: Viability of breast cancer cell lines treated with bortezomib (CellTiterGlo). It counts as cell-based, human. On the technique in general: Cellular ATP, detected with luciferase, serves as a proxy for viable cell number.
Experiment [4] deals with BPE, HMLER and BPLER cells. Put plainly: Cell cycle distribution (propidium iodide DNA staining).
Experiment [5] concerns mouse TNBC primary tumor fragments. Nature of the experiment: Primary TNBC tumor fragments from TP53 heterozygous Balb/c mice implanted in mammary fat-pad (V22 tumors). The experiment is classed as in vivo. The settings on record: 1.6 mg/kg weekly i.v. infusion. As to the method:
as §1, with “Upper and lower whiskers represent maximum and minimum tumor weight, respectively. The black horizontal band in each box corresponds to median tumor weight.” left out

Chain of proteasome (P28074 60-263): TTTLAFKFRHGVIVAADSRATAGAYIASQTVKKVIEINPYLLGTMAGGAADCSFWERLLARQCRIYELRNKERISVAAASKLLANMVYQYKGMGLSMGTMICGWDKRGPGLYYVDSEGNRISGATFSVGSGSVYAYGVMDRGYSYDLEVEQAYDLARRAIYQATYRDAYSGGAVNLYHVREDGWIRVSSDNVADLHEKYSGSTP
Description for MB-468 tumors: Mean tumor volume in MB-468 tumor-bearing mice upon intratumoral infusion of bortezomib (0.8 mg/kg) or DMSO q3d.
Treatment was started once mice developed palpable tumors.

As to `CC(C)C[C@H](NC(=O)[C@H](Cc1ccccc1)NC(=O)c1cnccn1)B(O)O` [bortezomib], the “tumors smaller compared to control mice” value in the experiment on MB-468 tumors is on record as “at least 6 fold”. The “proteasome inhibition in the tumor” value at proteasome (1.6 mg/kg i.v.) was “efficient proteasome activity inhibition”; on proteasome (1 dose 0.8 mg/kg i.p. or i.v.), “less effective”; at proteasome (1 dose 0.8 mg/kg i.t.), “Nearly complete proteasome inhibition”. In addition, the Noxa protein induction entry was “only weakly” with Noxa, PARP1 (BPE, MCF7 and T47D); “strongly induced Noxa protein” in the experiment on Noxa, PARP1 (all TNBC cell lines tested). In addition, the Noxa protein level result in the experiment on Noxa, PARP1 (BPLER cells) was “highly increased”. Besides, the PARP cleavage result in the experiment on Noxa, PARP1 (HCC1143 and HCC1937 cells) is “induced PARP cleavage”; in the experiment with Noxa, PARP1 (MCF7 or MDA-MB-436 cells) it was “not in MCF7 or MDA-MB-436 cells”. The partial response rates in experiment [1] is 10-20%. Further, the cytotoxicity at 0.0125 µM in experiment [2] was 20 to 25%; in experiment [3] (Homo sapiens, luminal cells, 12.5 nM, 24 hr, read-out: decrease of cell viability), 5%. For the same compound, in experiment [3] (MCF7, BT-474), the “sensitivity of ER+ and HER2+ breast cancer cell lines” value is “resistant”. Also, the cell cycle distribution result was “underwent G2/M arrest” in experiment [4] (BPE cells, 24 hours); “did not undergo cell cycle arrest” in experiment [4] (BPLER cells, low dose); “underwent G2/M arrest” in experiment [4] (HMLER cells, low dose). In addition, the “secondary tumors smaller compared to control mice” value in experiment [5] is recorded as around 90%. In addition, the “secondary tumors weighed less compared to control mice” value in experiment [5] is recorded as around 80%.
